According to publication PMC11696576, “Next generation thiazolyl ketone inhibitors of cytosolic phospholipase A2 α for targeted cancer therapy” (Nature Communications, 2025):
Values joined by “and” are separate entries in the source; they are usually repeats but may differ in a detail not shown here. Equal values may be shown once. Read-outs that look alike come from different tables or passages of the source.

Test system: panel of 66 cancer cell lines
Assay: cancer cell line screen, proliferation assay (ATPlite, 72 h)
Type: cell-based, human
Details: for raw signal, dose-response (Figure S7a): rep1, rep2, listed as AVX420; for IC50: Homo sapiens
Description: Targeting specific molecular vulnerabilities in cancer is considered a key approach to reducing the adverse effects of chemotherapy. However, the events that govern the susceptibility to suppression of the cPLA2α in cancer remain largely unexplored. We therefore took the approach of screening the antiproliferative activity of AVX420 in a panel of 66 cancer cell lines (hereafter referred to as the cancer cell line screen or CCLS) to allow us to investigate molecular and genetic vulnerabilities to the drug.
Screening of compound activities in 66 cancer cell lines was carried out at the Netherlands Translation Research Center. Briefly, proliferation assays were performed 72 h after compound addition using ATPlite 1step reagent (Perkin Elmer). IC50s calculated by non-linear regression analysis were used as a measure of compound activity for investigating associations with genetic factors. A complete description of the laboratory and data analysis methods are available in the Supplementary Information file (Supplemental Methods: Cancer Cell Line Screening).
Cancer cell line screening
Cell proliferation assays
All cell lines were from the American Type Culture Collection (ATCC) Manassas, Virginia (US) and maintained under ATCC-recommended protocols and within 9 pas- […]
DMSO at -80°C until one hour before use. Cells exposed within one hour after thaw-ing of the compound stocks. Final compound concentration range in the assay was 10 […]
cated by supplier. Compounds were dissolved in 100 % DMSO and stored at room temperature. Final concentration of the reference compounds in the assay was 3.16x10-5 M to 3.16x10-9 M. The final DMSO concentration during incubation was […]
Cell lines were plated in Advanced RPMI 1640 (Gibco, ref 12633-012) cell culture medium, containing 1% Glutamax solution (Gibco, ref 35050-038), 0.4% Pen Strep solution (Gibco, ref 15140-122) and bovine serum. The cPLA2α inhibitors were tested in 0.5% bovine serum (HyClone, ref SH30072.03) with the exception of769-P, A-204, BT-549, SR, T98G, which were tested in the presence of 1.0% serum and A-704 and LNCaP FGS, which were tested in the in the presence of 10% serum. Reference com-pounds were all tested in the presence of 10% bovine serum.
Cells were dispensed in a 384-well plate, at a concentration of 200 - 3200 cells per well, depending on the cell line, in 45 μL medium. Plated cells were incubated in a humidified atmosphere of 5% CO2 at 37 °C. After 24 hours, 5 μL of compound dilu-tion was added and plates were further incubated for another 72 hours. After 72 hours, 25 μL of ATPlite 1Step™ (PerkinElmer) solution was added to each well, and subse-quently shaken for 2 minutes. After 10 minutes of incubation in the dark, the lumines-cence was recorded on an Envision multimode reader (PerkinElmer).
Cell growth control. The cellular doubling times of all cell lines are calculated from the t = 0 hours and t = 72 hours growth signals of the untreated cells. If the doubling time is out of specification (0.5 – 2.0 times deviating from historic average) the assay […]
IC50s were calculated by non-linear regression using IDBS XLfit 5. The percentage growth after 72h (%-growth) was calculated as follows: 100% x (luminescence t = 72h / luminescence untreated,t=72h). This was fitted to the 10log compound concentration (conc) by a 4-parameter logistics curve: %-growth = bottom + (top – bottom) / (1+ 10(logIC50 – conc)*hill)), where hill is the Hill-coefficient, and bottom and top the asymptotic mini-mum and maximum cell growth that the compound allows in that assay.
All analysis were performed in the statistical software package R and visualized using GraphPad Prism version 10.0 .0

With `CCCCCCCOc1ccc(OCC(=O)c2nc(C(=O)OC)cs2)cc1` [GK420] the “average panel 10logIC50” value (10log of IC50 in nM, panel average) was 4.17, the pIC50 (769P, kidney) was 4,561 and the pIC50 (786O, kidney) was 4,867. For the same molecule, the pIC50 (A172, central_nervous_system) was 4,692, the pIC50 (A204, soft_tissue) was 4,646 and the pIC50 (A375, skin) was 4,764. The pIC50 (A388, cervix) was 4,776, the pIC50 (A427, lung) was 4,923 and the pIC50 (A498, kidney) was 4,615. The pIC50 (A549, lung) was 4,624, the pIC50 (ACHN, kidney) was 4,799 and the pIC50 (AN3CA, endometrium) was 4,941. The pIC50 (AU565, breast) was 4,836, the pIC50 (AsPC1, pancreas) was 4,597 and the pIC50 (BT20, breast) was 4,474. For the same molecule, the pIC50 (BT549, breast) was 4,818, the pIC50 (BxPC3, pancreas) was 4,715 and the pIC50 (CAL27, upper_aerodigestive_tract) was 4,804. For the same molecule, the “raw signal, dose-response (Figure S7a)” value (CCRF-CEM, Log10 M -4) was 5160 and 4973, the “raw signal, dose-response (Figure S7a)” value (CCRF-CEM, Log10 M -4.5) was 1680 and 1133 and the “raw signal, dose-response (Figure S7a)” value (CCRF-CEM, Log10 M -6) was 1223867 and 1721613. For the same molecule, the “raw signal, dose-response (Figure S7a)” value (CCRF-CEM, Log10 M -6.5) was 5260280 and 5359267, the “raw signal, dose-response (Figure S7a)” value (CCRF-CEM, Log10 M -7) was 5505373 and 6147053 and the “raw signal, dose-response (Figure S7a)” value (CCRF-CEM, Log10 M -7.5) was 5656213 and 5825533. The “raw signal, dose-response (Figure S7a)” value (CCRF-CEM, Log10 M -8) was 5419560 and 5847920, the pIC50 (COLO829, unknown) was 4,761 and the pIC50 (Daoy, central_nervous_system) was 4,867. The pIC50 (DoTc24510, cervix) was 4,743, the pIC50 (HCT15, large_intestine) was 4,945 and the pIC50 (HCT116, large_intestine) was 4,795. For the same molecule, the IC50 (769-P, read-out: IC50) was 27.5 µM, the IC50 (786-0, 786-O, read-out: IC50) was 13.6 µM and the IC50 (72 h, panel average, 72 h, read-out: average IC50 in the cancer cell line screen) was 18.4 µM. The IC50 (A 172, A-172, read-out: IC50) was 20.3 µM, the IC50 (A204, A-204, read-out: IC50) was 22.6 µM and the IC50 (A388, read-out: IC50) was 16.8 µM. It also gave an IC50 (A498, A-498, read-out: IC50) of 24.3 µM, an IC50 (A549, A-549, read-out: IC50) of 23.8 µM and an IC50 (A704, A704, kidney, read-out: pIC50 (converted)) of 34 µM. For the same molecule, the IC50 (A704, A-704, read-out: IC50) was over 100 µM, the IC50 (A-375, A375, read-out: IC50) was 17.2 µM and the IC50 (A-427, A-427, read-out: IC50) was 11.9 µM. For the same molecule, the IC50 (ACHN, read-out: IC50) was 15.9 µM, the IC50 (AN3-CA, AN3 CA, read-out: IC50) was 11.4 µM and the IC50 (ASPC1, AsPC-1, read-out: IC50) was 25.3 µM. For the same molecule, the IC50 (AU565, AU-565, read-out: IC50) was 14.6 µM, the IC50 (BT-20, BT-20, read-out: IC50) was 33.6 µM and the IC50 (BT-549, BT-549, read-out: IC50) was 15.2 µM. For the same molecule, the IC50 (BXPC-3, BxPC-3, read-out: IC50) was 19.3 µM, the IC50 (C-33-A, C33A, cervix, read-out: pIC50 (converted)) was 1.74 µM and the IC50 (C-33-A, C-33 A, read-out: IC50) was 1.74 µM. It also gave an IC50 (CAL-27, CAL 27, read-out: IC50) of 15.7 µM, an IC50 (CCRF-CEM, CCRFCEM, blood, read-out: pIC50 (converted)) of 0.708 µM and an IC50 (CCRF-CEM, read-out: IC50) of 0.708 µM. The IC50 (COLO 205, COLO 205, read-out: IC50) was 22.3 µM, the IC50 (COLO-829, COLO 829, read-out: IC50) was 17.3 µM and the IC50 (DLD-1, DLD1, large_intestine, read-out: pIC50 (converted)) was 13.8 µM. The IC50 (DLD-1, DLD-1, read-out: IC50) was 13.8 µM, the IC50 (DU-145, DU 145, read-out: IC50) was 25.3 µM and the IC50 (Daoy, read-out: IC50) was 13.6 µM. The IC50 (DoTc2-4510, DoTc2 4510, read-out: IC50) was 18.1 µM, the IC50 (FaDu, upper_aerodigestive_tract, read-out: pIC50 (converted)) was 25.7 µM and the IC50 (FaDu, read-out: IC50) was 25.7 µM. The IC50 (HCT-15, HCT-15, read-out: IC50) was 11.4 µM, the IC50 (HCT-116, HCT 116, read-out: IC50) was 16 µM and the IC50 (Hs-578T, Hs 578T, read-out: IC50) was 14.7 µM. It also gave an IC50 (J82, J82, read-out: IC50) of 19.2 µM, an IC50 (Jurkat E6.1, Jurkat E6.1, read-out: IC50) of 0.569 µM and an IC50 (K562, K-562, read-out: IC50) of 15.3 µM. The IC50 (KU812, KU812, read-out: IC50) was 9.13 µM, the IC50 (LNCaP, LNCaP FGC, read-out: IC50) was 91.7 µM and the IC50 (LS174T, LS 174T, read-out: IC50) was 20.3 µM. For the same molecule, the IC50 (LoVo, read-out: IC50) was 16.6 µM, the IC50 (MCF7, MCF7, read-out: IC50) was 14.7 µM and the IC50 (MG-63, MG-63, read-out: IC50) was 22.7 µM. It also gave an IC50 (MIA PaCa-2, MIA PaCa-2, read-out: IC50) of 13.1 µM, an IC50 (MOLT-4, MOLT-4, read-out: IC50) of 4.07 µM and an IC50 (MeWo, read-out: IC50) of 19.5 µM. The IC50 (NCI-H82, NCI-H82, read-out: IC50) was 4.84 µM, the IC50 (NCI-H460, NCI-H460, read-out: IC50) was 32.5 µM and the IC50 (OVCAR-3, OVCAR-3, read-out: IC50) was 13.7 µM. It also gave an IC50 (PA1, ovary, read-out: pIC50 (converted)) of 2.88 µM, an IC50 (PA-1, PA-1, read-out: IC50) of 2.88 µM and an IC50 (RKO, read-out: IC50) of 10.1 µM. For the same molecule, the IC50 (RPMI-7951, RPMI-7951, read-out: IC50) was 14.1 µM, the IC50 (RT-4, RT4, read-out: IC50) was 33.4 µM and the IC50 (SHP77, SHP-77, read-out: IC50) was 13.8 µM.
